Earlier results as cited in PubChem BioAssay AID1259409 (Chemical Carcinogenesis Research Information System (CCRIS), 2018).

System: rodent chemically induced tumor inhibition, incidence and multiplicity
Test: CCRIS tumor inhibitor studies
Settings: Species: MOUSE

CSC(=S)NCc1c[nH]c2ccccc12
tumour outcome (control, treated, inhibition, significance) (Carcinogen: 7,12-DIMETHYLBENZ[A]ANTHRACENE, 57-97-6, Dose [Inhibitor]: 0, 0.5% IN 0.2 ML ACETONE APPLIED 1 HR PRIOR TO PROMOTER DOSE 2/WK FOR 12 WK (STUDY DURATION: 90 D), Route [Inhibitor]: DERMAL, Strain/Sex: CD-1/MALE, Target Tissue: Type of Lesion: SKIN: TUMOR, Dose [Carcinogen]: 50 UG IN 0.2 ML ACETONE ONCE, Promoter: 12-O-TETRADECANOYLPHORBOL-13-ACETATE, 16561-29-8): 95%, 65%, 32%, not significant | tumour outcome (control, treated, inhibition, significance) (Carcinogen: 7,12-DIMETHYLBENZ[A]ANTHRACENE, 57-97-6, Dose [Inhibitor]: 0, 1% IN 0.2 ML ACETONE APPLIED 1 HR PRIOR TO PROMOTER DOSE 2/WK FOR 12 WK (STUDY DURATION: 90 D), Route [Inhibitor]: DERMAL, Strain/Sex: CD-1/MALE, Target Tissue: Type of Lesion: SKIN: TUMOR, Dose [Carcinogen]: 50 UG IN 0.2 ML ACETONE ONCE, Promoter: 12-O-TETRADECANOYLPHORBOL-13-ACETATE, 16561-29-8): 95%, 50%, 50%, p<0.03 | tumour outcome (control, treated, inhibition, significance) (Carcinogen: 7,12-DIMETHYLBENZ[A]ANTHRACENE, 57-97-6, Dose [Inhibitor]: 0, 1% IN 0.2 ML ACETONE APPLIED 1 HR PRIOR TO PROMOTER DOSE 2/WK FOR 12 WK BEGINNING 5 D PRIOR TO CARCINOGEN DOSE (STUDY, Route [Inhibitor]: DERMAL, Strain/Sex: CD-1/MALE, Target Tissue: Type of Lesion: SKIN: TUMOR, Dose [Carcinogen]: 50 UG IN 0.2 ML ACETONE ONCE, Promoter: 12-O-TETRADECANOYLPHORBOL-13-ACETATE, 16561-29-8): 95%, 55%, 42%, p<0.03

CC(O)CCCc1ccccc1 (stereo unspecified)
tumour outcome (control, treated, inhibition, significance) (Carcinogen: 4-(METHYLNITROSAMINO)-1-(3-PYRIDYL)-1-BUTANONE, 64091-91-4, Dose [Inhibitor]: 0, 25 UMOL IN 0.1 ML CORN OIL ONCE 2 HR PRIOR TO CARCINOGEN DOSE (STUDY DURATION: 16 WK), Route [Inhibitor]: GAVAGE, Strain/Sex: STRAIN-A/FEMALE, Target Tissue: Type of Lesion: LUNG: TUMOR, Dose [Carcinogen]: 10 UMOL IN 0.1 ML SALINE ONCE, Promoter: NONE USED): 100%, 100%, 0%, not significant

CCCCCCCCCCCCCCCCCC(=O)O
tumour outcome (control, treated, inhibition, significance) (Carcinogen: BENZO[A]PYRENE, 50-32-8, Dose [Inhibitor]: 4 MG IN 0.2 ML ACETONE 3/WK ADMINISTERED SIMULTANEOUSLY WITH CARCINOGEN FOR DURATION OF STUDY (STUDY DURATION: 440 D), Route [Inhibitor]: DERMAL, Strain/Sex: ICR/FEMALE, Target Tissue: Type of Lesion: SKIN: PAPILLOMA, Dose [Carcinogen]: 5 UG IN 0.2 ML ACETONE THAT ALSO CONTAINED AGENT 3/WK, Promoter: NONE USED): 16/50 (32%), 25/50 (50%), -56%, not calculated | tumour outcome (control, treated, inhibition, significance) (Carcinogen: BENZO[A]PYRENE, 50-32-8, Dose [Inhibitor]: 4 MG IN 0.2 ML ACETONE 3/WK ADMINISTERED SIMULTANEOUSLY WITH CARCINOGEN FOR DURATION OF STUDY (STUDY DURATION: 440 D), Route [Inhibitor]: DERMAL, Strain/Sex: ICR/FEMALE, Target Tissue: Type of Lesion: SKIN: SQUAMOUS CARCINOMA, Dose [Carcinogen]: 5 UG IN 0.2 ML ACETONE THAT ALSO CONTAINED AGENT 3/WK, Promoter: NONE USED): 12/50 (24%), 7/50 (14%), 42%, not calculated
